In data set [1] the test system is PC12 cells. Nature of the data set: MTT toxicity (safety evaluation) on PC12 nerve cells. The class given is cell-based. As to conditions: for cytotoxicity to PC12 cells: 3.75-60 μM, 24 h and 48 h, in words. As to the method: The toxicity of each drug to PC12 cells was determined by MTT assay. The principle of the MTT colorimetric method: there is succinate dehydrogenase in the mitochondria of living cells, which can make exogenous MTT become blue-purple crystal formazan insoluble in water, this phenomenon cannot be observed in dead cells. The blue-purple crystal formazan can be dissolved by DMSO, and the absorbance value is measured by a microplate reader at a wavelength of 490 nm, which in turn reflects the number of living cells. […] The operation method is as follows:
The cells were resuscitated with DMEM high glucose medium containing 10% fetal bovine serum and cultured in a 5% CO2 cell incubator at 37° C., when the cells grew to the logarithmic growth phase, they were inoculated into a 96-well plate and cultured for 24 hours, each well was added with 100 μL of each compound solution at the corresponding gradient concentration (60, 30, 15, 7.5, 3.75 μM), after incubation in the incubator for 24 h or 48 h, 20 μL of MTT was added to continue incubation for 4 h, the supernatant was discarded and 150 μL of DMSO was added to dissolve the blue-purple crystals, after shaking for 10 min, the cell viability was detected by a microplate reader, and classified according to the cytotoxicity standard. The relevant calculation formula is as follows: […]

The nature of data set [2]: ABTS free radical capture ability. The class given is biochemical. The following applies: 20 min reaction in the dark. As to the method:
66.2 mg of K2S2O8 was weighed and placed in a 100 mL volumetric flask, pure water was added to the scale line to prepare a 2.45 mmol/L K2S2O8 solution. 192 mg of ABTS was accurately weighed and placed in a 25 mL volumetric flask, and the newly prepared K2S2O8 solution was added for dissolving and constant volume dilution, after standing in the dark for 20 h, the ABTS mother liquor was obtained. Before use, to make the measured value more accurate, the ABTS mother liquor needs to be diluted with a PBS solution of pH7.4 until the absorbance range of the ABTS working solution at 734 nm is 0.70±0.02.
Drug concentration screening: To avoid the complete removal of free radicals by excessive drug concentration and the inability to compare the ability to capture ABTS free radicals, a preliminary screening of drug concentration is required before the formal test. A gradient concentration of compound solution was prepared, and a gradient concentration of Vit C solution was prepared as a positive control. A total of 450 μL of ABTS working solution was accurately absorbed into a 1.5 mL EP tube, and 150 μL of the gradient solution of each group of drugs was added, after 20 min of reaction in the dark, 150 μL of the reaction solution was taken and placed in a 96-well plate, the absorbance was measured by a microplate reader. Three duplicate wells were set for each concentration, and the drug concentration with absorbance between 0.2-0.7 was selected for subsequent determination.
Determination operation: After the drug concentration screening was completed, 7 concentration gradient groups were set within this concentration range. A total of 450 μL of ABTS working solution was accurately absorbed into a 1.5 mL EP tube, and 150 μL of the gradient solution of each group of drugs was added. After 20 min of reaction in the dark, 150 μL of the reaction solution was taken and placed in a 96-well plate, the absorbance was measured by a microplate reader. Three duplicate wells were set for each concentration, the positive control group was a gradient solution of Vit C, and the blank control group was an equal volume of anhydrous ethanol.

Data set [3] is described as follows: Solubility detection of CAK01-CAK07. The format is physicochemical. From the text:
The chlorinated monocarbonyl curcumin compounds CAK01-CAK07 prepared under the conditions of Example 1 were taken for nuclear magnetic resonance, mass spectrometry, solubility, and melting point detection.

In data set [4] the test system is PC12 cells. Nature of the data set: Inhibition of H2O2-induced oxidative damage in PC12 cells. The class given is cell-based, rat. The following applies: for effect on survival of H2O2-damaged PC12 cells: 24 h, in words.
Description: After 24 hours of incubation in the incubator, the relative proliferation rates of the cells were calculated according to the method under Section 2.1.
For data set [5], the system named is PC12 cells. Nature of the data set: Inhibition of corticosterone (CORT)-induced PC12 cell damage. As to conditions: 3.75-60 μM drug with 514.6 μM CORT, 24 h, in words. The class given is cell-based, rat.
Data set [6] concerns Nrf2, HO-1, BDNF, and TrkB in the hippocampus. Nature of the data set: Western blot of hippocampal proteins in CUMS depression model mice. The format is in vivo. The following applies: in words. (A western blot detects proteins with antibodies after separation by electrophoresis.)
The test system of data set [7] is CUMS depression model mice. Nature of the data set: Sucrose preference test in CUMS depression model mice. The class given is in vivo, C57BL/6J mice. As to conditions: 10 mg/kg oral once a day, 14th day, in words. From the text:
(§1) After one week of adaptive feeding, the newly purchased mice were divided into a blank group and CUMS model group. The mice in the blank group were not subjected to behavioral intervention and were fed normally. Mice in the model group were given 1-2 unpredictable behavioral stimuli every day. […] When the same stimulation is continuous, the stimulation method is changed to ensure that the same stimulation is not continuous, and the model construction period is 42 days.

In data set [8] the test system is CUMS depression model mice. Nature of the data set: Forced swimming test in CUMS depression model mice. The class given is in vivo, C57BL/6J mice. As to conditions: 10 mg/kg oral once a day.
Source text: as §1

In data set [9] the test system is CUMS depression model mice. Briefly: Open field test in CUMS depression model mice. As to conditions: 10 mg/kg oral once a day, 28 days; model 327.22±161.39 cm. The format is in vivo, C57BL/6J mice.
Source text: as §1

`COc1cc(/C=C2\CN(C(C)C)C/C(=C\c3cc(Cl)c(O)c(OC)c3)C2=O)cc(Cl)c1O` [CAK05, 3,5-bis ((E)-3-chloro-4-hydroxy-5-methoxybenzylidene)-1-isopropylpiperidin-4-one]: the “cytotoxicity to PC12 cells” value with PC12 cells [1] was “a great influence on the activity of PC12 cells”. Further, the “Rank (cytotoxicity standard) 24 h” value is given as 1 in the data set on PC12 cells [1] (PC12, 3.75 μM); 2 in the data set with PC12 cells [1] (PC12, 7.5 μM); 2 in the data set with PC12 cells [1] (PC12, 15 μM); 2 in the data set on PC12 cells [1] (PC12, 30 μM); 3 in the data set on PC12 cells [1] (PC12, 60 μM). The “Relative growth rate (%) 24 h” value in the data set with PC12 cells [1] (PC12, 3.75 μM) came out at 89.59 ± 2.85%; with PC12 cells [1] (PC12, 7.5 μM), 68.98±2.27%; in the data set on PC12 cells [1] (PC12, 15 μM) it was 62.32 ± 3.54%; in the data set on PC12 cells [1] (PC12, 30 μM) it was 56.50 ± 1.99%; in the data set on PC12 cells [1] (PC12, 60 μM), 41.84 ± 0.40%. For the same compound, the “Rank (cytotoxicity standard) 48 h” value in the data set on PC12 cells [1] (PC12, 3.75 μM) is on record as 2; in the data set with PC12 cells [1] (PC12, 7.5 μM), 2; in the data set on PC12 cells [1] (PC12, 15 μM), 3; in the data set on PC12 cells [1] (PC12, 30 μM) it was 4; with PC12 cells [1] (PC12, 60 μM) it was 4. Also, the “Relative growth rate (%) 48 h” value is 61.38±0.91% in the data set on PC12 cells [1] (PC12, 3.75 μM); 51.45 ± 1.44% in the data set with PC12 cells [1] (PC12, 7.5 μM); 22.26 ± 1.14% in the data set on PC12 cells [1] (PC12, 15 μM); 15.43 ± 0.32% in the data set on PC12 cells [1] (PC12, 30 μM); 11.06 ± 0.87% in the data set on PC12 cells [1] (PC12, 60 μM). Also, in data set [2], the “IC50 values of ABTS captured” value was 369.1 mg/L. Also, the solubility in data set [3] came out at 0.14 mg/100 g. Also, in the data set on PC12 cells [4] (3.75-60 μM drug), the “effect on survival of H2O2-damaged PC12 cells” value is on record as “failed to show the potential to restore cell viability”. In addition, the “effect on viability of CORT-damaged PC12 cells” value (“effect on viability” below) with PC12 cells [5] was “did not show the potential to restore cell viability”.
With `COc1cc(/C=C2\CN(C)C/C(=C\c3cc(Cl)c(O)c(OC)c3)C2=O)cc(Cl)c1O` [CAK07, 3,5-bis ((E)-3-chloro-4-hydroxy-5-methoxybenzylidene)-1-methylpiperidin-4-one], the “cytotoxicity to PC12 cells” value in the data set with PC12 cells [1] was “high”. In addition, the “Rank (cytotoxicity standard) 24 h” value came out at 1 in the data set on PC12 cells [1] (PC12, 3.75 μM); 1 with PC12 cells [1] (PC12, 7.5 μM); 2 with PC12 cells [1] (PC12, 15 μM); 2 with PC12 cells [1] (PC12, 30 μM); 3 in the data set on PC12 cells [1] (PC12, 60 μM). In addition, the “Relative growth rate (%) 24 h” value in the data set on PC12 cells [1] (PC12, 3.75 μM) is given as 99.04 ± 1.89%; in the data set with PC12 cells [1] (PC12, 7.5 μM), 76.49 ± 0.75%; in the data set with PC12 cells [1] (PC12, 15 μM), 60.78±0.55%; with PC12 cells [1] (PC12, 30 μM), 53.24 ± 0.51%; in the data set on PC12 cells [1] (PC12, 60 μM), 49.53 ± 0.31%. Besides, the “Rank (cytotoxicity standard) 48 h” value is listed as 1 with PC12 cells [1] (PC12, 3.75 μM); 3 in the data set on PC12 cells [1] (PC12, 7.5 μM); 3 with PC12 cells [1] (PC12, 15 μM); 3 with PC12 cells [1] (PC12, 30 μM); 4 in the data set on PC12 cells [1] (PC12, 60 μM). Besides, the “Relative growth rate (%) 48 h” value is 82.45 ± 2.34% in the data set with PC12 cells [1] (PC12, 3.75 μM); 46.41±0.69% in the data set on PC12 cells [1] (PC12, 7.5 μM); 30.99 ± 0.02% with PC12 cells [1] (PC12, 15 μM); 30.46 ± 0.54% in the data set with PC12 cells [1] (PC12, 30 μM); 24.20 ± 0.74% in the data set on PC12 cells [1] (PC12, 60 μM). Also, in [2], the “IC50 values of ABTS captured” value turned out to be 197.3 mg/L. For the same compound, the solubility in [3] amounted to 34.77 mg/100 g. For the same compound, the “effect on survival of H2O2-damaged PC12 cells” value in the data set on PC12 cells [4] (7.5 μM drug) was “a certain cytoprotective effect”. For the same compound, in the data set on PC12 cells [5], the “effect on viability” value is reported as “did not show the potential to restore cell viability”.
As for `CNCCC(Oc1ccc(C(F)(F)F)cc1)c1ccccc1` (stereo not drawn) [Flu, fluoxetine, reference compound], the “expression of Nrf2, HO-1, BDNF and TrkB” value in data set [6] was “also increased”. In addition, the sucrose preference rate entry in [7] is recorded as “failed to significantly increase the sucrose preference rate”. Further, in data set [8] (14th day, in words), the “forced swimming test, depressive symptoms / immobility time” value is listed as “did not show significant improvement in depressive symptoms”. In addition, in [8] (28 days), the “immobility time in the forced swimming test” value was found to be 130.42 ± 59.96 s. In the data set on PC12 cells [4] (7.5 μM drug with 585.8 μM H2O2, 24 h), this compound showed a cell survival rate of 41.92±0.66%. The “effect on viability” value with PC12 cells [5] is “did not show the effect of restoring CORT-damaged cells”. Moreover, the “overall activity distance in the open field test” value in [9] is 705.43±159.14 cm.

Source of the values: patent US20250289786A1, “CHLORINATED MONOCARBONYL CURCUMIN COMPOUNDS, PREPARATION METHOD, AND APPLICATION” (Southwest Medical University, priority 2024, published 2025).
